Source: paper PMC11321638 (Advanced Science, 2024)
No end group written: not given here.

Assays:
[1] = tested on: BALB/c mice; settings: mouse, in vivo, sc
[2] = target: T1, protease K (Parengyodontium album, UniProt P06873); test: in vitro; settings: isolated enzyme
[3] = target: T1, protease K

T1 sequence (P06873 106-384 limits assumed): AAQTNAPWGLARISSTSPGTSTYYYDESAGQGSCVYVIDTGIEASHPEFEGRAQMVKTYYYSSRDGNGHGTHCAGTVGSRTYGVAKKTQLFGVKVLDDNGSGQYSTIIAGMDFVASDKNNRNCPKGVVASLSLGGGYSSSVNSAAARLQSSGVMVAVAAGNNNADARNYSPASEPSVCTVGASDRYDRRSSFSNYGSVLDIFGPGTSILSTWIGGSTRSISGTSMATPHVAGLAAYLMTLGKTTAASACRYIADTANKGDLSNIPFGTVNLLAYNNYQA

SEFMRNALEEMLRRA-NH2 [RSIpep]
pathological section analysis of heart, liver, spleen, lung, kidney [1]: no discernible pathological alterations
half-life [2]: 37.2 ± 1.8 min
t1/2 with protease K [3]: less than 1 h
